{"source": "patent US12628825B2", "about": "“Methods of controlling or preventing infestation of plants by plant-parasitic nematodes of the genus Aphelenchoides spp., especially Aphelenchoides besseyi” (SYNGENTA CROP PROTECTION AG, priority 2020, dated 2026)", "test_system": "Aphelenchoides besseyi", "assay": "Soybean pot trial in the greenhouse, seed treatment, nematode control", "assay_type": "in vivo", "details": "28-day after inoculation assessment", "description": "A soybean pot trial was carried out in the greenhouse of Holambra Field Station, state of Sao Paulo, Brazil, to evaluate the efficacy of nematicidal treatments against Aphelenchoides besseyi.\nThe seeds of the susceptible soybean variety Nidera 6828 IPRO were treated (seed treatment) at the field station with the use of a slurry (spray solution) of 0.6 liter per 100 kg of seeds of soybean. The treated seeds (treatments 3-10) were then compared with the untreated checks.\nTwo seeds were sowed in 1-liter pots with the Holambra Mix (25% of Holambra station soil and 75% pasteurized sand). […] The inoculation of each plant with the nematode was performed at 8 days after emergence (at the crop stage V1) by using a pipet with 1000 juveniles of Aphelenchoides per plant, directed to the base of the plant. Each plot of the trial was 1 pot containing 1 infested plant of soybean. A total of 6 replicates per treatment was used. The plants were grown in separated plastic chambers (to avoid contamination of plots) inside a greenhouse that averaged 30° C. in the day and 20° C. in the night. Plants were watered many times per day (for keeping a favourable environment for the growth of nematode population and migration to the aerial part of plants) by an automatic sprinkler system. […]"}
{"smiles": "O=C(N[C@@H]1CC[C@@H]1c1ccc(Cl)cc1Cl)c1cccnc1C(F)(F)F", "note": "(racemic) [cyclobutrifluram]", "values": [{"measurement": "comparison to Avicta 500FS and Ilevo 600FS", "setting": "even at the lowest rate tested of 5 g AI per 100 kg of seeds", "result": "statistically superior"}, {"measurement": "activity against Aphelenchoides besseyi which attacked soybean", "setting": "seed treatment", "result": "excellent activity"}]}
